Laboratory results from US7863332B2, “Biaromatic compound activators of PPARγ receptors and cosmetic/pharmaceutical compositions comprised thereof” (Galderma Research & Development, priority 2004, dated 2011).

Experiments:
PPARα = molecular target: T1, PPARα (Homo sapiens, UniProt Q07869); assay: Cross-curve PPAR transactivation test (PPARα); type: cell-based; details: HeLN cells, Gal-hPPARα, luciferase reporter; cross curves against reference agonist, Schild regression; n.a means not active; read-out: PPAR alpha Kd app
T1 sequence (Q07869 202-468 limits assumed): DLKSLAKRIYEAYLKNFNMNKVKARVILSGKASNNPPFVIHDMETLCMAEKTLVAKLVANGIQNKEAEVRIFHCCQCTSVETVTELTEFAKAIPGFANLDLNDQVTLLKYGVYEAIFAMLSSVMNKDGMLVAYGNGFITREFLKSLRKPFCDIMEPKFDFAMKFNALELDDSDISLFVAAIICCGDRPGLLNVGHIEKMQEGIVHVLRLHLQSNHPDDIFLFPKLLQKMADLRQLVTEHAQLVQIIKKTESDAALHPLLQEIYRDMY
Description: (§1) The activation of PPAR receptors with an agonist (activator) in HeLN cells leads to the expression of a reporter gene, luciferase, which, in the presence of a substrate, generates light. The modulation of the PPAR receptors is measured by quantifying the luminescence produced after incubating the cells in the presence of a reference agonist. The ligands displace the agonist from its site. The measurement of the activity is performed by quantifying the light produced. This measurement makes it possible to determine the modulatory activity of the compounds according to the invention by determining the constant that is the affinity of the molecule for the PPAR receptor. Since this value can fluctuate depending on the basal activity and the expression of the receptor, it is referred to as Kd apparent (KdApp in nM).
(§2) To determine this constant, “cross curves” of the test product against a reference agonist are produced in a 96-well plate: 10 concentrations of the test product plus a concentration 0 are arranged in a line, and 7 concentrations of the agonist plus a concentration 0 are arranged in a column. This is 88 measurement points for 1 product and 1 receptor. The remaining 8 wells are used for repeatability controls.
(§3) Measurements are also taken for total agonist controls with the same products.
(§4) The HeLN cell lines used are stable transfectants containing the plasmids ERE-βGlob-Luc-SV-Neo (reporter gene) and PPAR (α, δ, γ) Gal-hPPAR. These cells are inoculated into 96-well plates at a rate of 10 000 cells per well in 100 μl of DMEM medium without phenol red and supplemented with 10% of defatted calf serum. The plates are then incubated at 37° C. and 7% CO2 for 16 hours.
(§5) The various dilutions of the test products and of the reference ligand are added at a rate of 5 μl per well. The plates are then incubated for 18 hours at 37° C. and 7% CO2. The culture medium is removed by turning over and 100 μl of a 1:1 PBS/luciferin mixture are added to each well. After 5 minutes, the plates are read by the luminescence detector.

PPARδ = molecular target: T2, PPARδ (Homo sapiens, UniProt Q03181); assay: Cross-curve PPAR transactivation test (PPARδ); type: cell-based; details: HeLN cells, Gal-hPPARδ, luciferase reporter; cross curves against reference agonist, Schild regression; n.a means not active; read-out: PPARs delta Kd app
T2 sequence (Q03181 171-441 limits assumed): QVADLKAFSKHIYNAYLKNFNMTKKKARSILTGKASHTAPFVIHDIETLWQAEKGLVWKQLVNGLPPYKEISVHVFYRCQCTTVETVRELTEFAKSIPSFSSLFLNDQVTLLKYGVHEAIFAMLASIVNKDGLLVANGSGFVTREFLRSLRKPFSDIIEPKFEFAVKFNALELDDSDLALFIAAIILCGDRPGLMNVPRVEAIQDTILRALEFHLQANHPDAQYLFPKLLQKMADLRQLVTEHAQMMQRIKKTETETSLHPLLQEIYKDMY
Description: as §1, §2, §3, §4, §5

PPARγ = molecular target: T3, PPARγ (Homo sapiens, UniProt P37231); assay: Cross-curve PPAR transactivation test (PPARγ); type: cell-based; details: HeLN cells, Gal-hPPARγ, luciferase reporter; cross curves against reference agonist, Schild regression; n.a means not active; read-out: PPAR gamma Kd app
T3 sequence (P37231 238-505 limits assumed): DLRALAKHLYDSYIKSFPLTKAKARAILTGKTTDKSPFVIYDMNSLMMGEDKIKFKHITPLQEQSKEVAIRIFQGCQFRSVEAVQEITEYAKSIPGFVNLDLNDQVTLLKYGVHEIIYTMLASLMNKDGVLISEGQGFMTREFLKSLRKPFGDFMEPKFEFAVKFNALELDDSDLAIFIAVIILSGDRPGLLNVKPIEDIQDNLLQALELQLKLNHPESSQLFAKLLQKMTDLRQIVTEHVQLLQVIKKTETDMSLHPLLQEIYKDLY
Description: as §1, §2, §3, §4, §5

Q: Which Kd (PPARα) does the source give for `CCCCCCCNC(=O)N(C)c1cccc(-c2ccc(CCC(=O)O)cc2OCCC(F)(F)F)c1` [Example 37, 3-[3′-(3-heptyl-1-methylureido)-2-(3,3,3-trifluoropropoxy)biphenyl-4-yl]propanoic acid] here?
A: The Kd was 250 nM.

Q: What about the Kd (PPARδ) of the same molecule?
A: The Kd was 2000 nM.

Q: What about the Kd (PPARγ) of the same molecule?
A: Its Kd is 2 nM.

Q: Which results are given for `CCCCCCCNC(=O)N(C)c1cccc(-c2ccc(CCC(=O)O)cc2OCCCCO)c1` [Example 40, 3-[3′-(3-heptyl-1-methylureido)-2-(4-hydroxybutoxy)biphenyl-4-yl]propanoic acid]?
A: Kd (PPARα): 8000 nM; Kd (PPARγ): 1 nM

Q: Which Kd (PPARα) does the source give for `CCCCCCCNC(=O)N(C)c1cccc(-c2ccc(CCC(=O)O)cc2OCCCCC)c1` [Example 45, 3-[3′-(3-heptyl-1-methylureido)-2-pentyloxybiphenyl-4-yl]propanoic acid] here?
A: The Kd was 120 nM.

Q: What about the Kd (PPARγ) of the same molecule?
A: The Kd was 0.25 nM.

Q: For `CCCCCCCNC(=O)N(C)c1cccc(-c2ccc(CCC(=O)O)cc2OCc2ccccc2)c1` [Example 42, 3-[2-benzyloxy-3′-(3-heptyl-1-methylureido)biphenyl-4-yl]propanoic acid], which Kd (PPARα) is on record?
A: The Kd was 4000 nM.

Q: What about the Kd (PPARγ) of the same molecule?
A: The Kd was 1 nM.

Q: For `CN(C(=O)Nc1ccc(OCc2ccccc2)cc1)c1cccc(-c2ccc(CCC(=O)O)cc2)c1` [Example 13, 3-{3′-[3-(4-benzyloxyphenyl)-1-methylureido]biphenyl-4-yl}propanoic acid], which Kd (PPARδ) is on record?
A: Its Kd is 2000 nM.

Q: And the Kd (PPARγ)?
A: The Kd was 2 nM.

Q: What about the melting point of the same molecule?
A: The melting point was 173.5 to 175 °C.

Q: For `CCCCCCCNC(=O)N(C)c1cccc(-c2ccc(CCC(=O)O)cc2OCCOC)c1` [Example 15, 3-[3′-(3-heptyl-1-methylureido)-2-(2-methoxyethoxy)biphenyl-4-yl]propanoic acid], which Kd (PPARα) is on record?
A: Its Kd is 2000 nM.

Q: And the Kd (PPARδ)?
A: Its Kd is 2000 nM.

Q: And the Kd (PPARγ)?
A: The Kd was 2 nM.

Q: Which Kd (PPARα) does the source give for `CCCCc1ccc(NC(=O)N(C)c2cccc(-c3ccc(CCC(=O)O)cc3)c2)cc1` [Example 14, 3-{3′-[3-(4-butylphenyl)-1-methylureido]biphenyl-4-yl}propanoic acid] here?
A: The Kd was 500 nM.

Q: And the Kd (PPARδ)?
A: The Kd was 500 nM.

Q: And the Kd (PPARγ)?
A: The Kd was 2 nM.

Q: Which melting point does the source give for `CCCCCCNC(=O)N(C)c1cccc(-c2ccc(CCC(=O)O)cc2)c1` [Example 11, 3-[3′-(3-hexyl-1-methylureido)biphenyl-4-yl]propanoic acid] here?
A: Its melting point is 119 to 120 °C.

Q: For `CCCCCCCNC(=O)N(C)c1cccc(-c2ccc(CCC(=O)O)cc2F)c1` [Example 10, 3-[2-fluoro-3′-(3-heptyl-1-methylureido)biphenyl-4-yl]propanoic acid], which melting point is on record?
A: The melting point was 80 to 82 °C.

Q: Which Kd (PPARδ) does the source give for `CCCCOc1ccc(NC(=O)N(C)c2cccc(-c3ccc(CCC(=O)O)cc3)c2)cc1` [Example 33, 3-{3′-[3-(4-butoxyphenyl)-1-methylureido]biphenyl-4-yl}propanoic acid] here?
A: The Kd was 1000 nM.

Q: And the Kd (PPARγ)?
A: Its Kd is 4 nM.

Q: Which Kd (PPARα) does the source give for `CCCCOc1ccc(NC(=O)N(CC)c2cccc(-c3ccc(CCC(=O)O)cc3)c2)cc1` [Example 34, 3-{3′-[3-(4-butoxyphenyl)-1-ethylureido]biphenyl-4-yl}propanoic acid] here?
A: Its Kd is 500 nM.

Q: What about the Kd (PPARδ) of the same molecule?
A: Its Kd is 8 nM.

Q: And the Kd (PPARγ)?
A: Its Kd is 2 nM.

Q: What does the source list for `CCCCCCCNC(=O)N(C)c1cccc(-c2ccc(/C=C/C(=O)O)cc2OCc2ccccc2)c1` [Example 24, (E)-3-[2-benzyloxy-3′-(3-heptyl-1-methylureido)biphenyl-4-yl]acrylic acid]?
A: Kd (PPARα): 500 nM; Kd (PPARδ): 2000 nM; Kd (PPARγ): 4 nM

Q: Which results are given for `CCCCCNC(=O)N(C)c1cccc(-c2ccc(CCC(=O)O)cc2OCCOCC)c1` [Example 49, 3-[2-(2-ethoxyethoxy)-3′-(1-methyl-3-pentylureido)biphenyl-4-yl]propanoic acid]?
A: Kd (PPARα): 2000 nM; Kd (PPARγ): 2 nM

Q: Which Kd (PPARα) does the source give for `CCCCCCCNC(=O)N(C)c1cccc(-c2ccc(CCC(=O)O)cc2OCc2cccc(F)c2)c1` [Example 43, 3-[2-(3-fluorobenzyloxy)-3′-(3-heptyl-1-methylureido)biphenyl-4-yl]propanoic acid] here?
A: The Kd was 2000 nM.

Q: And the Kd (PPARγ)?
A: The Kd was 2 nM.

Q: Which melting point does the source give for `CCCCCCCNC(=O)N(C)c1cccc(-c2ccc(CCC(=O)NO)cc2)c1` [Example 6, 3-[3′-(3-heptyl-1-methylureido)biphenyl-4-yl]-N-hydroxypropionamide] here?
A: The melting point was 100 to 101 °C.

Q: For `CN(C(=O)Nc1ccc2ccccc2c1)c1cccc(-c2ccc(CCC(=O)O)cc2)c1` [Example 7, 3-[3′-(1-methyl-3-naphthalen-2-ylureido)biphenyl-4-yl]propanoic acid], which melting point is on record?
A: The melting point was 170 to 171 °C.

Q: With `CCCCCCCNC(=O)N(C)c1cccc(-c2ccc(CCC(=O)O)cc2OCCOCC)c1` [Example 47, 3-[2-(2-ethoxyethoxy)-3′-(3-heptyl-1-methylureido)biphenyl-4-yl]propanoic acid] as the molecule, how does the Kd (PPARα) read?
A: Its Kd is 1000 nM.

Q: What about the Kd (PPARγ) of the same molecule?
A: The Kd was 2 nM.

Q: Which results are given for `CCCCCCCNC(=O)N(C)c1cccc(-c2ccc(CCC(=O)O)cc2OC)c1` [Example 18, 3-[3′-(3-heptyl-1-methylureido)-2-methoxybiphenyl-4-yl]propanoic acid]?
A: Kd (PPARα): 2000 nM; Kd (PPARδ): 250 nM; Kd (PPARγ): 4 nM

Q: Which Kd (PPARα) does the source give for `CCCCCCCNC(=O)N(C)c1cccc(-c2ccc(CCC(=O)O)cc2OCCCCl)c1` [Example 17, 3-[2-(3-chloropropoxy)-3′-(3-heptyl-1-methylureido)biphenyl-4-yl]propanoic acid] here?
A: The Kd was 500 nM.

Q: What about the Kd (PPARγ) of the same molecule?
A: The Kd was 1 nM.

Q: With `CCCCOc1cc(CCC(=O)O)ccc1-c1cccc(N(C)C(=O)Nc2ccccc2)c1` [Example 48, 3-[2-butoxy-3′-(1-methyl-3-phenylureido)biphenyl-4-yl]propanoic acid] as the molecule, how does the Kd (PPARα) read?
A: Its Kd is 2000 nM.

Q: What about the Kd (PPARγ) of the same molecule?
A: The Kd was 2 nM.

Q: With `CCCCCNC(=O)N(C)c1cccc(-c2ccc(CCC(=O)O)cc2OCCCCC)c1` [Example 46, 3-[3′-(1-methyl-3-pentylureido)-2-pentyloxybiphenyl-4-yl]propanoic acid] as the molecule, how does the Kd (PPARα) read?
A: Its Kd is 30 nM.

Q: And the Kd (PPARγ)?
A: The Kd was 0.25 nM.

Q: For `CCCCCCCNC(=O)N(C)c1cccc(-c2ccc(/C=C/C(=O)O)cc2F)c1` [Example 9, (E)-3-[2-fluoro-3′-(3-heptyl-1-methylureido)biphenyl-4-yl]acrylic acid], which melting point is on record?
A: Its melting point is 130 to 131 °C.

Q: With `CCCCCCCNC(=O)N(C)c1cccc(-c2ccc(CCC(=O)O)cc2OCC2CC2)c1` [Example 35, 3-[2-cyclopropylmethoxy-3′-(3-heptyl-1-methylureido)biphenyl-4-yl]propanoic acid] as the molecule, how does the Kd (PPARδ) read?
A: Its Kd is 1000 nM.

Q: What about the Kd (PPARγ) of the same molecule?
A: The Kd was 1 nM.

Q: With `CCCCCCCNC(=S)N(C)c1cccc(-c2ccc(CCC(=O)O)cc2)c1` [Example 8, 3-[3′-(3-heptyl-1-methylthioureido)biphenyl-4-yl]propanoic acid] as the molecule, how does the melting point read?
A: The melting point was 95 to 96 °C.

Q: What does the source list for `CCCCCCCNC(=O)N(C)c1cccc(-c2ccc(CCC(=O)O)cc2OCCC)c1` [Example 25, 3-[3′-(3-heptyl-1-methylureido)-2-propoxybiphenyl-4-yl]propanoic acid]?
A: Kd (PPARα): 500 nM; Kd (PPARδ): 120 nM; Kd (PPARγ): 0.25 nM

Q: Which Kd (PPARα) does the source give for `CCCCCCCNC(=O)N(C)c1cccc(-c2ccc(CCC(=O)O)c(F)c2)c1` [Example 3, 3-[3-fluoro-3′-(3-heptyl-1-methylureido)biphenyl-4-yl]propanoic acid] here?
A: The Kd was 2000 nM.

Q: And the Kd (PPARδ)?
A: Its Kd is 2000 nM.

Q: And the Kd (PPARγ)?
A: Its Kd is 4 nM.

Q: With `CCCCCCCNC(=O)N(C)c1cccc(-c2ccc(CCC(=O)O)cc2)c1` [Example 2, 3-[3′-(3-heptyl-1-methylureido)biphenyl-4-yl]propanoic acid] as the molecule, how does the Kd (PPARδ) read?
A: Its Kd is 500 nM.

Q: What about the Kd (PPARγ) of the same molecule?
A: Its Kd is 2 nM.

Q: And the melting point?
A: The melting point was 101 °C.
